In US7579356B2, “Thia-tetraazaacenaphthylene kinase inhibitors” (Janssen Pharmaceutica NV, priority 2005, dated 2009):

Columns and labels:
Format in all cases: biochemical
[1] = target: T1, EGFR (Homo sapiens, UniProt P00533); experiment: EGFR Kinase Assay; settings: for IC50: GST-EGFR, ATP 5 μM; for inhibition at 2 µM: test concentration of 2 μM, compounds without an IC50, read-out: EGFR inhibition in percent
T1 construct: The intracellular portion of EGFR started at nucleotide 2189 (corresponding to amino acid 667) and ended at the termination codon; made in house; host or cells: Sf9 insect cells (baculovirus)
T1 sequence (P00533 669-1210 limits assumed): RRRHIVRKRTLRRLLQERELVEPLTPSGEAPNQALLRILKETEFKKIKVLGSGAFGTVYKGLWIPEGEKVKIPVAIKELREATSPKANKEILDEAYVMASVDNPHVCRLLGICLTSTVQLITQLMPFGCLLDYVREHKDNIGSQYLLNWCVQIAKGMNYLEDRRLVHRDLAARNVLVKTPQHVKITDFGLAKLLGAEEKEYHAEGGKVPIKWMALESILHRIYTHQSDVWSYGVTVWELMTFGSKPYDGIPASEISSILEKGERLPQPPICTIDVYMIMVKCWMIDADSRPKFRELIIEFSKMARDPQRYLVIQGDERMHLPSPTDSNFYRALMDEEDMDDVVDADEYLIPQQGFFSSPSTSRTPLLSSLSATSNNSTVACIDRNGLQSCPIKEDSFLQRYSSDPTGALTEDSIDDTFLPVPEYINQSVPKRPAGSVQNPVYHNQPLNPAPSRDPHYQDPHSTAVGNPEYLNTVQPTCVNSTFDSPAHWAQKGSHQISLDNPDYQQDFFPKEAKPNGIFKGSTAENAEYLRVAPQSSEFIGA
Method in brief: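 Potency came from triplicate 16-point half-log titrations starting at 200 uM, with IC50 fitted from % inhibition against log concentration, or % inhibition at 2 μM otherwise. Reaction: Sf9-made GST–EGFR cytoplasmic region (aa 667 onward), biotin-polyGluTyr, 5 μM ATP with 33P tracer, pH 8.0 Tris/Mg/vanadate/DTT, 30 °C for 1 h; captured on streptavidin Flashplates and counted.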

[2] = target: T2, c-Src kinase (human) (Homo sapiens, UniProt P12931); experiment: c-Src Kinase Assay; settings: test concentration of 2 μM; multiple values are separate assay results
T2 construct: purchased Upstate Biotechnology, Lake Placid, N.Y
T2 sequence (P12931 whole entry): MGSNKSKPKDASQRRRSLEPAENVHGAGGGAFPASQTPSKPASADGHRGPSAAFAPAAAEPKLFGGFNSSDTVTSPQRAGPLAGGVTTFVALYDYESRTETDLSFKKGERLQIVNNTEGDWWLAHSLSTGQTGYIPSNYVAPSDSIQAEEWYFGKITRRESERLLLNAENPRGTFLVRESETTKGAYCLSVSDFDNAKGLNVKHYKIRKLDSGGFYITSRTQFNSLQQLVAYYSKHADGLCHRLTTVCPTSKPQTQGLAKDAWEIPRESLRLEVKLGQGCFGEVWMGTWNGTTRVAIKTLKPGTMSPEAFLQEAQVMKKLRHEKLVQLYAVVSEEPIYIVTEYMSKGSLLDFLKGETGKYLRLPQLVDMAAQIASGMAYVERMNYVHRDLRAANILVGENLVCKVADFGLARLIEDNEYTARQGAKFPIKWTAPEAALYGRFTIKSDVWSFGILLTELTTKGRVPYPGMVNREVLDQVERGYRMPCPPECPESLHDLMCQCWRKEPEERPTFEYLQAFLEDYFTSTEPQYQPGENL
Protocol: A mixture of a 10× kinase buffer (80 mM MOPS at pH 7.0, 2 mM EDTA and 100 mM Magnesium Chloride), ATP (5 μM final from a 10 mM stock), a Cdc2 peptide KVEKIGEGTYGVVYK (100 μM final from a 2.5 mM stock), γ-^33P ATP (10 μCl/μL stock) and water (for a total of 20 μL/well) was added to each well of a Streptavidin Flashplate.
Test compound in 100% DMSO (0.5 μL) was added to the appropriate wells. Diluted c-Src kinase (human) (Accession Number SWISS-PROT P12931) (Upstate Biotechnology, Lake Placid, N.Y.) (diluted in a buffer consisting of 20 mM MOPS at pH 7.0, 1 mM EDTA, β-mercaptoethanol (0.1%), Brij-35 (0.01%), glycerol (5%), and 1 mg/mL bovine serum albumin) (2.5 μL) was added to the wells to initiate the reactions. The reaction plates were incubated at 30° C. for 40 min. The reaction was terminated by the addition of a 3% phosphoric acid solution (5 μL). The reaction product (10 μL) was spotted onto a P30 filtermat and washed for 5 minutes in phosphoric acid (75 mM). The wash sequence was repeated two more times, followed with one final wash in methanol. The plates were then dried, sealed and read on the TopCount scintillation counter after adding 30 μL scintillation fluid.
(§1) The c-Src inhibition values were derived using the percent inhibition formula provided in Example 164 and are shown as percent in Table 2 at a test concentration of 2 μM. For those compounds with an IC50, the IC50 value in μM is shown in parentheses. For compounds with multiple test values, each value represents a separate assay result.

[3] = target: T3, Lyn kinase (human) (Homo sapiens, UniProt P07948); experiment: Lyn Kinase Assay; settings: test concentration of 2 μM
T3 construct: purchased Upstate Biotechnology, Lake Placid, N.Y
T3 sequence (P07948 whole entry): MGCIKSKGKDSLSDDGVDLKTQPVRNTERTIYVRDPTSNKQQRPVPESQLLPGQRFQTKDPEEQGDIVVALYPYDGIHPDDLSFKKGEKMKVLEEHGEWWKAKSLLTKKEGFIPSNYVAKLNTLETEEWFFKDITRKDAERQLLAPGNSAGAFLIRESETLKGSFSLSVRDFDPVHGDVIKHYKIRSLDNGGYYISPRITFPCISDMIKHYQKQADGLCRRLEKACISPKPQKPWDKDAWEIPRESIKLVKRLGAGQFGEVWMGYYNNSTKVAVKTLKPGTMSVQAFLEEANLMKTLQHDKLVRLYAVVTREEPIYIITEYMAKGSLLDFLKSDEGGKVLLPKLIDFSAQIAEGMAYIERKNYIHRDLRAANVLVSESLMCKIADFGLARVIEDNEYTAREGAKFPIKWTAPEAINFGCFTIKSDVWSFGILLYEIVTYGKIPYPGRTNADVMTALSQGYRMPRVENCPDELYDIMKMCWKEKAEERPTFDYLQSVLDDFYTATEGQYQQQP
Protocol: A mixture of a 10× kinase buffer (500 mM MOPS at pH 7.5, 1 mM EGTA, 1 mM Sodium Vanadate, 1% β-mercaptoethanol and 100 mM Magnesium Acetate), ATP (5 μM final from a 10 mM stock), polyGluTyr (0.1 mg/mL final from a 1 mg/mL stock), γ-^33P ATP (10 μCl/μL stock) and water (for a total of 20 μL/well) was added to each well of a Streptavidin Flashplate.
Test compound in 100% DMSO (0.5 μL) was added to the appropriate wells. Diluted Lyn kinase (human)(Accession Number EMBL M16038) (Upstate Biotechnology, Lake Placid, N.Y.) (diluted in a buffer consisting of 50 mM Tris at pH 7.5, 0.1 mM EGTA, Sodium Vanadate (0.1 mM), β-mercaptoethanol (0.1%) and 1 mg/mL bovine serum albumin) (2.5 μL) was added to the wells to initiate the reactions.
The reaction plates were incubated at 30° C. for 40 min. The reaction was terminated by the addition of a 3% phosphoric acid solution (5 μL). The reaction product (10 μL) was spotted onto a P30 filtermat and washed for 5 minutes in phosphoric acid (75 mM). The wash sequence was repeated two more times, followed with one final wash in methanol. The plates were then dried, sealed and read on the TopCount scintillation counter after adding 30 μL scintillation fluid.
as §1, with “The Lyn” for “The c-Src”, “derived according to” for “derived using”, “the procedure described” for “the percent inhibition formula provided”, “Table 3” for “Table 2”

[4] = target: T4, HER-2 (Homo sapiens, UniProt P04626); experiment: HER-2 Kinase Assay; settings: test concentration of 1 μM
T4 construct: His6 with thrombin site (N); purchased Proqinase (Freiburg, Germany)
T4 sequence (P04626 679-1255): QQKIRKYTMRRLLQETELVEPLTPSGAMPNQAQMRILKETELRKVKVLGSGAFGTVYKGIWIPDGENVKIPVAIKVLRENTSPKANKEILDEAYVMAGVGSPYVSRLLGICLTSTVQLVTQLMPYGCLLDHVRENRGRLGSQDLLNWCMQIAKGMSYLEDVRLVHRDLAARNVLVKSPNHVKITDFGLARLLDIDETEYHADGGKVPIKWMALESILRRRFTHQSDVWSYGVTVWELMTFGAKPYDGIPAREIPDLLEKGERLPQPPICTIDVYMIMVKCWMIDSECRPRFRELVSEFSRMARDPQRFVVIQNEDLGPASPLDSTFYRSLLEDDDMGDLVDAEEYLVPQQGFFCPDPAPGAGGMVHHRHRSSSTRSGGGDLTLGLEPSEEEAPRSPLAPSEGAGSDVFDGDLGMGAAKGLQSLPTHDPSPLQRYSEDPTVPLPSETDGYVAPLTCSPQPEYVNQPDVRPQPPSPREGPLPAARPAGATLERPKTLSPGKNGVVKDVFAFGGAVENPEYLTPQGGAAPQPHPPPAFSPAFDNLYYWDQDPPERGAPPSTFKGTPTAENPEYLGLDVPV
Method in brief: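 Read-out was scintillation counting of 33P incorporated into biotinylated polyGluTyr captured on streptavidin plates. Reactions ran 1 h at 30 °C with GST-fused HER-2 residues 679–1255, 1 μM ATP, Mn2+ and Mg2+ at pH 7.5; data given as percent inhibition at 1 μM, with IC50 where determined.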

Row | IC50 [1] [nM] | inhibition at 2 µM [2] [%] | inhibition at 2 µM [3] [%] | inhibition at 1 µM [4] [%] | inhibition at 2 µM [1] [%] | SMILES
1 |  | 18 | 29 | -17 | 11 | COc1cc(N2C(=O)Nc3c(C(=O)O)sc4ncnc2c34)c(Cl)cc1Cl [Cpd 41, 5-(2,4-dichloro-5-methoxy-phenyl)-4-oxo-4,5-dihydro-3H-1-thia-3,5,6,8-tetraaza-acenaphthylene-2-carboxylic acid]
2 |  | 45 | 49 | 21 | 26 | COc1cc(N2C(=O)Nc3c(C(=O)Nc4ccc(CN5CCOCC5)cc4)sc4ncnc2c34)c(Cl)cc1Cl [Cpd 44, 5-(2,4-dichloro-5-methoxy-phenyl)-4-oxo-4,5-dihydro-3H-1-thia-3,5,6,8-tetraaza-acenaphthylene-2-carboxylic acid (4-morpholin-1-ylmethyl-phenyl)-amide]
3 |  | 17 | 29 | -25 | 14 | COc1cc(N2C(=O)Nc3c(C(=O)Nc4ccc(OCC5CCCCO5)c(OC)c4)sc4ncnc2c34)c(Cl)cc1Cl (stereo not drawn) [Cpd 45, 5-(2,4-dichloro-5-methoxy-phenyl)-4-oxo-4,5-dihydro-3H-1-thia-3,5,6,8-tetraaza-acenaphthylene-2-carboxylic acid [3-methoxy-4-(tetrahydro-pyran-2-ylmethoxy)-phenyl)-amide]
4 |  | 30 | 40 | 0 | 1 | COc1cc(N2C(=O)Nc3c(C(=O)N4CCCC4)sc4ncnc2c34)c(Cl)cc1Cl [Cpd 46, 5-(2,4-dichloro-5-methoxy-phenyl)-2-(pyrrolidine-1-carbonyl)3H,5H-1-thia-3,5,6,8-tetraaza-acenaphthylen-4-one]
5 |  | 9 | 28 | -28 | 5 | COc1ccc(Cl)c(N2C(=O)Nc3c(C(=O)O)sc4ncnc2c34)c1 [Cpd 47, 5-(2-chloro-5-methoxy-phenyl)-4-oxo-4,5-dihydro-3H-1-thia-3,5,6,8-tetraaza-acenaphthylene-2-carboxylic acid]
6 |  | -16 | 3 | -22 | 14 | O=C(Nc1ccc(CN2CCCC2)cc1)c1sc2ncnc3c2c1NC(=O)N3c1cc(OCc2cccc(F)c2)c(Cl)cc1Cl [Cpd 55, 5-[2,4-dichloro-5-(3-fluoro-benzyloxy)-phenyl]-4-oxo-4,5-dihydro-3H-1-thia-3,5,6,8-tetraaza-acenaphthylene-2-carboxylic acid (4-pyrrolidin-1-ylmethyl-phenyl)-amide]
7 |  | -48 | 6 | -27 | 16 | O=C(O)c1sc2ncnc3c2c1NC(=O)N3c1cc(OCc2cccc(F)c2)c(Cl)cc1Cl [Cpd 58, 5-[2,4-dichloro-5-(3-fluoro-benzyloxy)-phenyl]-4-oxo-4,5-dihydro-3H-1-thia-3,5,6,8-tetraaza-acenaphthylene-2-carboxylic acid]

The remaining lines, values behind:

Row | SMILES | IC50 [1] [nM] | inhibition at 2 µM [2] [%] | inhibition at 2 µM [3] [%] | inhibition at 1 µM [4] [%] | inhibition at 2 µM [1] [%]
8 | COc1ccc(NC(=O)c2sc3ncnc4c3c2NC(=O)N4c2ccc(Br)cc2F)cc1OC [Cpd 37, 5-(4-bromo-2-fluoro-phenyl)-4-oxo-4,5-dihydro-3H-1-thia-3,5,6,8-tetraaza-acenaphthylene-2-carboxylic acild (3,4-dimethoxy-phenyl)-amide] | 490 | 11 | -13 | 1 | 
9 | COc1cc(NC(=O)c2sc3ncnc4c3c2NC(=O)N4c2ccc(Br)cc2F)ccc1OCCN1CCOCC1 [Cpd 39, 5-(4-bromo-2-fluoro-phenyl)-4-oxo-4,5-dihydro-3H-1-thia-3,5,6,8-tetraaza-acenaphthylene-2-carboxylic acid [3-methoxy-4-(2-morpholin-4-yl-ethoxy)-phenyl]-amide] | 410 | 16 | 11 | 24 | 
10 | O=C(O)c1sc2ncnc3c2c1NC(=O)N3c1ccc(Br)cc1F [Cpd 40, 5-(4-bromo-2-fluoro-phenyl)-4-oxo-4,5-dihydro-3H-1-thia-3,5,6,8-tetraaza-acenaphthylene-2-carboxylic acid] | 7430 | 3 | -5 | -19 | 
11 | COc1cc(N2C(=O)Nc3c(C(=O)O)sc4ncnc2c34)cc(OC)c1OC [Cpd 42, 4-oxo-5-(3,4,5-trimethoxy-phenyl)-4,5-dihydro-3H-1-thia-3,5,6,8-tetraaza-acenaphthylene-2-carboxylic acid] |  | 8 | 24 | -36 | -3
12 | O=C(Nc1ccc(CN2CCOCC2)cc1)c1sc2ncnc3c2c1NC(=O)N3c1ccc(Br)cc1F [Cpd 53, 5-(4-bromo-2-fluoro-phenyl)-4-oxo-4,5-dihydro-3H-1-thia-3,5,6,8-tetraaza-acenaphthylene-2-carboxylic acid (4-morpholin-4-ylmethyl-phenyl)-amide] |  | 11 | 17 | -13 | 34
13 | COc1cc(NC(=O)c2sc3ncnc4c3c2NC(=O)N4c2cc(OCc3cccc(F)c3)c(Cl)cc2Cl)ccc1OCCN1CCCCC1 [Cpd 56, 5-[2,4-dichloro-5-(3-fluoro-benzyloxy)-phenyl]-4-oxo-4,5-dihydro-3H-1-thia-3,5,6,8-tetraaza-acenaphthylene-2-carboxylic acid [3-methoxy-4-(2-piperidin-1-yl-ethoxy)-phenyl]-amide] |  | -22 | 7 | -6 | 20
14 | O=C(Nc1ccc(CN2CCCCC2)cc1)c1sc2ncnc3c2c1NC(=O)N3c1cc(OCc2cccc(F)c2)c(Cl)cc1Cl [Cpd 57, 5-[2,4-dichloro-5-(3-fluoro-benzyloxy)-phenyl]-4-oxo-4,5-dihydro-3H-1-thia-3,5,6,8-tetraaza-acenaphthylene-2-carboxylic acid (4-piperidin-1-ylmethyl-phenyl)-amide] |  | -16 | 1 | -20 | 12
15 | CN(Cc1ccc(NC(=O)c2sc3ncnc4c3c2NC(=O)N4c2cc(OCc3cccc(F)c3)c(Cl)cc2Cl)cc1)C[C@H]1CCCO1 [Cpd 59, 5-[2,4-dichloro-5-(3-fluoro-benzyloxy)-phenyl]-4-oxo-4,5-dihydro-3H-1-thia-3,5,6,8-tetraaza-acenaphthylene-2-carboxylic acid [4-({methyl-[(2R)-tetrahydro-furan-2-ylmethyl]-amino}-methyl)-phenyl]-amide] |  | -13 | 8 | -18 | 20
